Reference: US6355428B1, “Nucleic acid ligand interaction assays” (Genelabs Technologies, Inc., priority 1998, dated 2002)

What was measured:
[1] = test system: indicator oligo SEQ ID NO: 12 (mixed sequence) versus unlabeled competitor dsDNA; test: ECL competitive assay with 12-base duplex competitor oligos; type: binding; details: competitor having only one A/T base pair; 0.008 to 8.33 μM competitor
Procedure: Three 12-base duplex competitor oligos, containing 1-, 5-, and 8-base stretches of A/T's flanked by G/C sequences, were tested as competitors, using distamycin as the binding ligand and SEQ ID NO: 12 (mixed sequence) as the indicator oligo. The indicator pair was labeled with a 5′ ruthenium chelate on one strand and a 3′biotin on the complementary strand, as described above and in Example 14.
Distamycin was premixed at […] with 0.25 nM indicator oligo. The assay was conducted as described in Example 14, using the Igen Origen® apparatus. Ligand binding, which stabilizes the duplexed form of the indicator DNA, results in an increase in the ECL signal. Unlabeled competitor dsDNA (no ruthenium or biotin label) was then added at concentrations ranging from 0.008 to 8.33 μM, and the decrease in the signal was monitored, as shown in FIG. 13.
An indicator pair of oligonucleotides, having the sequence SEQ ID NO: 12 and complement, were labeled with a 5′ ruthenium (bipy) chelate on one strand, as described in U.S. Pat. No. 5,635,347 and references cited therein, and with a 3′ biotin on the complementary strand. […] The biotinylated strand of DNA was captured on the bead surface, and any ruthenium captured by the streptavidin via drug-stabilized hybridization of the indicator duplex was quantified with the IGEN Origen™ analyzer. […]

[2] = test system: G/C rich sequence 5′-CGCGCC-3′ (SEQ ID NO: 7) F/Q indicator pair; test: Fluorescence quenching direct binding assay, G/C rich DNA; details: change in fluorescence similar to single-stranded controls
Procedure: The specific examples described in this section employ fluorescence quenching as the detection system. In these examples, because conditions are adjusted to maintain the oligonucleotides in single-stranded form in the absence of the ligand, the assay starts with the system at a high or maximum level of fluorescence, and fluorescence generally decreases, depending on binding affinity, as the ligand is added.
In the Figure legends, RNA oligonucleotides are denoted by an “r” at the beginning of the sequence, and single stranded controls by “ss” at the end of the sequence. These single stranded sequence, are used alone in control experiments, which thus employ only an “F” strand and no complementary quenching strand. Any quenching of fluorescence that is not due to hybridization can thus be acounted for. Maximum quenching expected on complete hybridization of these oligonucleotides is 85-90%; therefore some signal remains after complete hybridization. […]
According to the general method described above, increasing amounts of netropsin or actinomycin, respectively, were added to mixtures of selected F/Q indicator oligonucleotide pairs, whose sequences are shown in the legends of FIGS. 1 and 3. […] The Figures show the level of fluorescence observed, relative to a control having no added drug, for each indicator pair (or single strand) as the level of added drug was increased. […]

Row | Structure (SMILES) | competition by competitor oligonucleotide (FIG. 13) [1] | binding (decrease in fluorescence, FIG. 3A) [2]
1 | Cn1cc(NC(=O)c2cc(NC(=O)c3cc(NC=O)cn3C)cn2C)cc1C(=O)NCCC(=N)N [Distamycin, distamycin] | little competition was observed | 
2 | Cn1cc(NC(=O)c2cc(NC(=O)CN=C(N)N)cn2C)cc1C(=O)NCCC(=N)N [Netropsin, netropsin] |  | does not bind well
